{
  "source": "ChEMBL document CHEMBL5252590",
  "about": "“Structure-based design of novel melanin-concentrating hormone receptor-1 ligands based on saturated nitrogen-containing heterocycles” (Bioorg Med Chem Lett, 2023)",
  "data": [
    {"experiment": "(§1) Displacement of [125I]MCH from MCHR1 expressed in CHO cell membranes assessed as inhibition constant", "design": "species or system Cricetulus griseus, Membrane", "details": "not given; call rule not given here", "values": [
      {"molecule": "O=C(c1ccc(-c2ccccc2)cc1)N1CCCC12CCCN(Cc1ccc3ccccc3c1)C2", "note": "(configuration not stated)", "Ki": "Not Active"}
    ]},
    {"experiment": "as §1", "design": "species or system Cricetulus griseus, Membrane", "details": "read-out: Ki", "units": {"Ki": "µM"}, "values": [
      {"molecule": "COc1cccc(-c2ccc(C(=O)N[C@@H]3CCN(Cc4ccc5ccccc5c4)C3)cc2)c1", "Ki": 4.19},
      {"molecule": "COc1cc(OC)cc(C(=O)N[C@@H]2CCN(Cc3ccc4ccccc4c3)C2)c1", "Ki": 0.007},
      {"molecule": "O=C(N[C@@H]1CCN(Cc2ccc3ccccc3c2)C1)c1ccc(F)c(F)c1", "Ki": 0.208},
      {"molecule": "O=C(c1ccc(F)c(F)c1)N1CCC2(CCCN(Cc3ccc4ccccc4c3)C2)C1", "note": "(configuration not stated)", "Ki": 1.9},
      {"molecule": "COc1cc(OC)cc(C(=O)N[C@@H]2CCN(C/C=C/c3ccccc3)C2)c1", "Ki": 0.017},
      {"molecule": "O=C(N[C@@H]1CCN(Cc2ccc3ccccc3c2)C1)c1ccc(Br)s1", "Ki": 0.202},
      {"molecule": "O=C(/C=C/c1ccc(F)cc1)N[C@@H]1CCN(Cc2ccc3ccccc3c2)C1", "Ki": 0.936},
      {"molecule": "Cc1ccc2c(C)c(C(=O)N[C@@H]3CCN(Cc4ccc5ccccc5c4)C3)oc2c1", "Ki": 2.64},
      {"molecule": "O=C(N[C@@H]1CCN(Cc2ccc3ccccc3c2)C1)c1ccc(-c2ccc(F)cc2)cc1", "Ki": 1.84},
      {"molecule": "O=C(COc1ccc(Cl)cc1)N1CCC2(CCCN(Cc3ccc4c(c3)OCO4)C2)C1", "note": "(configuration not stated)", "Ki": 2.56},
      {"molecule": "O=C(COc1ccc(Cl)cc1)N1CCCC12CCCN(Cc1ccc3ccccc3c1)C2", "note": "(configuration not stated)", "Ki": 2.61},
      {"molecule": "O=C(COc1ccc(Cl)cc1)N[C@@H]1CCN(Cc2ccc3ccccc3c2)C1", "Ki": 0.271},
      {"molecule": "O=C(N[C@@H]1CCN(Cc2ccc3ccccc3c2)C1)c1ccccc1", "Ki": 0.448},
      {"molecule": "COc1cc(NC(=O)CC2CCCN(Cc3ccc4ccccc4c3)C2)cc(OC)c1", "note": "(configuration not stated)", "Ki": 1.69},
      {"molecule": "O=C(c1ccc(F)c(Cl)c1)N1CCC2(CCCN(Cc3ccc4c(c3)OCO4)C2)C1", "note": "(configuration not stated)", "Ki": 2.5},
      {"molecule": "O=C(N[C@@H]1CCN(Cc2ccc3ccccc3c2)C1)c1ccc(Br)cc1", "Ki": 0.103},
      {"molecule": "O=C(N[C@@H]1CCN(Cc2ccc3ccccc3c2)C1)c1ccc(-c2ccc(C(F)(F)F)cc2)s1", "Ki": 3.08},
      {"molecule": "COc1cc(OC)cc(C(=O)NC[C@H]2CCN(Cc3ccc4ccccc4c3)C2)c1", "Ki": 0.105},
      {"molecule": "COc1cc(OC)cc(C(=O)N[C@@H]2CCN(Cc3ccc4c(c3)OCO4)C2)c1", "Ki": 0.0618},
      {"molecule": "O=C(N[C@@H]1CCN(Cc2ccc3ccccc3c2)C1)c1ccc(F)c(Cl)c1", "Ki": 0.136},
      {"molecule": "COc1cc(OC)cc(C(=O)N2CCC3(CCCN(Cc4ccc5ccccc5c4)C3)C2)c1", "note": "(configuration not stated)", "Ki": 0.33}
    ]}
  ]
}
